In PubChem BioAssay AID2060603 (Molecular Pharmacology Branch, DTP, NCI, 2025):

System: 422866-222-R5-J1-PDC spheroid viability
Experiment: Anticancer human tumor 422866-222-R5-J1-PDC patient-derived pancreatic adenocarcinoma cell line growth inhibition [CLK]
Conditions: spheroids with HUVEC and MSC; for viability, T/C: stronger effect = lower value
Outline: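 Patient-derived tumor cells grown as complex spheroids with HUVEC endothelial cells and mesenchymal stem cells, treated with drug combinations. Concentrations descend in half-log steps from near clinical Cmax, or from 10 microM if Cmax unknown.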

[1] = curve of first compound, second compound 0.0316 µM
[2] = curve of first compound, second compound 0.1 µM
[3] = curve of first compound, second compound 0.316 µM
[4] = curve of first compound, second compound 1 µM
[5] = curve of first compound, second compound 3.16 µM
[6] = curve of first compound, second compound 10 µM
[7] = second compound 0.0316 µM, first compound 0.0316 µM
[8] = second compound 0.0316 µM, first compound 0.1 µM
[9] = second compound 0.0316 µM, first compound 0.316 µM
[10] = second compound 0.0316 µM, first compound 1 µM
[11] = second compound 0.0316 µM, first compound 3.16 µM
[12] = second compound 0.0316 µM, first compound 10 µM
[13] = second compound 0.1 µM, first compound 0.0316 µM
[14] = second compound 0.1 µM, first compound 0.1 µM
[15] = second compound 0.1 µM, first compound 0.316 µM
[16] = second compound 0.1 µM, first compound 1 µM
[17] = second compound 0.1 µM, first compound 3.16 µM
[18] = second compound 0.1 µM, first compound 10 µM
[19] = second compound 0.316 µM, first compound 0.0316 µM
[20] = second compound 0.316 µM, first compound 0.1 µM
[21] = second compound 0.316 µM, first compound 0.316 µM
[22] = second compound 0.316 µM, first compound 1 µM
[23] = second compound 0.316 µM, first compound 3.16 µM
[24] = second compound 0.316 µM, first compound 10 µM
[25] = second compound 1 µM, first compound 0.0316 µM
[26] = second compound 1 µM, first compound 0.1 µM
[27] = second compound 1 µM, first compound 0.316 µM
[28] = second compound 1 µM, first compound 1 µM
[29] = second compound 1 µM, first compound 3.16 µM
[30] = second compound 1 µM, first compound 10 µM
[31] = second compound 3.16 µM, first compound 0.0316 µM
[32] = second compound 3.16 µM, first compound 0.1 µM
[33] = second compound 3.16 µM, first compound 0.316 µM
[34] = second compound 3.16 µM, first compound 1 µM
[35] = second compound 3.16 µM, first compound 3.16 µM
[36] = second compound 3.16 µM, first compound 10 µM
[37] = second compound 10 µM, first compound 0.0316 µM
[38] = second compound 10 µM, first compound 0.1 µM
[39] = second compound 10 µM, first compound 0.316 µM
[40] = second compound 10 µM, first compound 1 µM
[41] = second compound 10 µM, first compound 3.16 µM
[42] = second compound 10 µM, first compound 10 µM
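Note: spheroids exposed to agents for seven days before readout.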

CCCS(=O)(=O)Nc1ccc(F)c(C(=O)c2c[nH]c3ncc(-c4ccc(Cl)cc4)cc23)c1F + CNC(=O)c1ccc(Nc2nc(OC3CCCC3)c3c(-c4ccc5nc(C)oc5c4)c[nH]c3n2)c(OC)c1
IC50 [1]: > 10 µM
IC50 [2]: > 10 µM
IC50 [3]: > 10 µM
IC50 [4]: > 10 µM
IC50 [5]: > 10 µM
IC50 [6]: > 10 µM
viability, T/C [7]: 93.6%
viability, T/C [8]: 111%
viability, T/C [9]: 141%
viability, T/C [10]: 155%
viability, T/C [11]: 190%
viability, T/C [12]: 134%
viability, T/C [13]: 99.8%
viability, T/C [14]: 102%
viability, T/C [15]: 114%
viability, T/C [16]: 152%
viability, T/C [17]: 224%
viability, T/C [18]: 122%
viability, T/C [19]: 81.5%
viability, T/C [20]: 77.2%
viability, T/C [21]: 79.3%
viability, T/C [22]: 105%
viability, T/C [23]: 101%
viability, T/C [24]: 104%
viability, T/C [25]: 69%
viability, T/C [26]: 75.9%
viability, T/C [27]: 81.1%
viability, T/C [28]: 91%
viability, T/C [29]: 114%
viability, T/C [30]: 92.3%
viability, T/C [31]: 58.4%
viability, T/C [32]: 70.1%
viability, T/C [33]: 67.1%
viability, T/C [34]: 84.6%
viability, T/C [35]: 128%
viability, T/C [36]: 84%
viability, T/C [37]: 57.8%
viability, T/C [38]: 69.2%
viability, T/C [39]: 74.8%
viability, T/C [40]: 75.9%
viability, T/C [41]: 117%
viability, T/C [42]: 80.7%

CC(C)CC(NC(=O)C(Cc1ccccc1)NC(=O)c1cnccn1)B(O)O (stereo not given) + CNC(=O)c1ccc(Nc2nc(OC3CCCC3)c3c(-c4ccc5nc(C)oc5c4)c[nH]c3n2)c(OC)c1
IC50 [1]: 0.00565 µM
IC50 [2]: 0.00552 µM
IC50 [3]: 0.00454 µM
IC50 [4]: 0.00419 µM
IC50 [5]: 0.00429 µM
IC50 [6]: 0.00412 µM
viability, T/C (second compound 0.0316 µM, first compound 0.000949 µM): 94%
viability, T/C (second compound 0.0316 µM, first compound 0.003 µM): 88.6%
viability, T/C (second compound 0.0316 µM, first compound 0.00949 µM): 18.5%
viability, T/C (second compound 0.0316 µM, first compound 0.03 µM): 2.14%
viability, T/C (second compound 0.0316 µM, first compound 0.0949 µM): 0.75%
viability, T/C (second compound 0.0316 µM, first compound 0.3 µM): 0.67%
viability, T/C (second compound 0.1 µM, first compound 0.000949 µM): 115%
viability, T/C (second compound 0.1 µM, first compound 0.003 µM): 90.8%
viability, T/C (second compound 0.1 µM, first compound 0.00949 µM): 13.8%
viability, T/C (second compound 0.1 µM, first compound 0.03 µM): 1.87%
viability, T/C (second compound 0.1 µM, first compound 0.0949 µM): 1.7%
viability, T/C (second compound 0.1 µM, first compound 0.3 µM): 1.33%
viability, T/C (second compound 0.316 µM, first compound 0.000949 µM): 108%
viability, T/C (second compound 0.316 µM, first compound 0.003 µM): 70.2%
viability, T/C (second compound 0.316 µM, first compound 0.00949 µM): 13.9%
viability, T/C (second compound 0.316 µM, first compound 0.03 µM): 1.54%
viability, T/C (second compound 0.316 µM, first compound 0.0949 µM): 0.87%
viability, T/C (second compound 0.316 µM, first compound 0.3 µM): 1.27%
viability, T/C (second compound 1 µM, first compound 0.000949 µM): 96.5%
viability, T/C (second compound 1 µM, first compound 0.003 µM): 67.8%
viability, T/C (second compound 1 µM, first compound 0.00949 µM): 6.77%
viability, T/C (second compound 1 µM, first compound 0.03 µM): 1.53%
viability, T/C (second compound 1 µM, first compound 0.0949 µM): 3.06%
viability, T/C (second compound 1 µM, first compound 0.3 µM): 2.68%
viability, T/C (second compound 3.16 µM, first compound 0.000949 µM): 86.8%
viability, T/C (second compound 3.16 µM, first compound 0.003 µM): 69.7%
viability, T/C (second compound 3.16 µM, first compound 0.00949 µM): 6.4%
viability, T/C (second compound 3.16 µM, first compound 0.03 µM): 1.59%
viability, T/C (second compound 3.16 µM, first compound 0.0949 µM): 1.4%
viability, T/C (second compound 3.16 µM, first compound 0.3 µM): 0.99%
viability, T/C (second compound 10 µM, first compound 0.000949 µM): 84.8%
viability, T/C (second compound 10 µM, first compound 0.003 µM): 66.5%
viability, T/C (second compound 10 µM, first compound 0.00949 µM): 6.65%
viability, T/C (second compound 10 µM, first compound 0.03 µM): 1.39%
viability, T/C (second compound 10 µM, first compound 0.0949 µM): 1.44%
viability, T/C (second compound 10 µM, first compound 0.3 µM): 1.32%

O=c1[nH]cc(F)c(=O)[nH]1 + CN1CCN(c2cc(C(=O)Nc3cc4cc(-c5cnn(C)c5)ccc4cn3)ccn2)CC1
IC50 [1]: > 10 µM
IC50 [2]: > 10 µM
IC50 [3]: > 10 µM
IC50 [4]: < 0.0316 µM
IC50 [5]: < 0.0316 µM
IC50 [6]: < 0.0316 µM
viability, T/C [7]: 116%
viability, T/C [8]: 129%
viability, T/C [9]: 114%
viability, T/C [10]: 95.6%
viability, T/C [11]: 86.9%
viability, T/C [12]: 77.1%
viability, T/C [13]: 125%
viability, T/C [14]: 104%
viability, T/C [15]: 108%
viability, T/C [16]: 90.5%
viability, T/C [17]: 84.7%
viability, T/C [18]: 91%
viability, T/C [19]: 90.4%
viability, T/C [20]: 100%
viability, T/C [21]: 91.9%
viability, T/C [22]: 96.1%
viability, T/C [23]: 80.7%
viability, T/C [24]: 80.6%
viability, T/C [25]: 24.2%
viability, T/C [26]: 19.1%
viability, T/C [27]: 25.6%
viability, T/C [28]: 17.9%
viability, T/C [29]: 23.7%
viability, T/C [30]: 22.5%
viability, T/C [31]: 8.44%
viability, T/C [32]: 10.5%
viability, T/C [33]: 9.21%
viability, T/C [34]: 8.88%
viability, T/C [35]: 10.5%
viability, T/C [36]: 9.67%
viability, T/C [37]: 1.68%
viability, T/C [38]: 1.08%
viability, T/C [39]: 0.97%
viability, T/C [40]: 1.08%
viability, T/C [41]: 3.1%
viability, T/C [42]: 1.13%

CN1CCN(c2cc(C(=O)Nc3cc4cc(-c5cnn(C)c5)ccc4cn3)ccn2)CC1
viability, T/C (compound 1 µM): 25.8% [middle of 12 runs]
viability, T/C (compound 3.16 µM): 11% [middle of 12 runs]
viability, T/C (compound 10 µM): 2.14% [middle of 12 runs]
IC50 (compound alone, run of 08/14/2023): 650 nM [middle of 12 runs]
